Test results as given in US20260265230A1, “FLUORESCENT AND SELF-ASSEMBLING UREIDOPYRIMIDINONE CONJUGATES AND PREPARATION THEREOF” (COUNCIL OF SCIENTIFIC AND INDUSTRIAL RESEARCH AN INDIAN …, priority 2022, published 2026).

Test: Fluorescent studies (absorption and emission spectra) in DMSO
Type: physicochemical
Conditions: concentration 1×10^−5 M; for maximum absorption wavelength (λabs) / maximum emission wavelength (λems): FIG. 1
Description: FIG. 1 represents absorption and emission spectra of (a) coumarin-UpyFlAA (6) and (b) hydroquinone-UPy-FlAA(10), in accordance with an implementation of the present disclosure.

Row | Structure (SMILES) | fluorescence (relative fluorescence intensity) | maximum absorption wavelength (λabs) | maximum emission wavelength (λems)
1 | CCN(CC)c1ccc2cc(-c3cc(=O)[nH]c(NC(=O)NCCCC[C@H](NC(=O)OC(C)(C)C)C(=O)O)n3)c(=O)oc2c1 [Compound 6, N2-(tert-butoxycarbonyl)-N6-((4-(7-(diethylamino)-2-oxo-2H-chromen-3-yl)-6-oxo-1,6-dihydropyrimidin-2-yl)carbamoyl)lysine] | high level of fluorescence | 437 nm | 487 nm
2 | COc1ccc(OC)c(-c2cc(=O)nc(NC(=O)NCCCC[C@H](NC(=O)OC(C)(C)C)C(=O)O)[nH]2)c1 [Compound 10, N2-(tert-butoxycarbonyl)-N6-((6-(2,5-dimethoxyphenyl)-4-oxo-1,4-dihydropyrimidin-2-yl)carbamoyl)lysine] | high level of fluorescence | 310 nm | 421 nm
